Measured values: US9446105B2, “Chimeric antigen receptor specific for folate receptor β” (THE TRUSTEES OF THE UNIVERSITY OF PENNSYLVANIA, priority 2013, dated 2016)
“Also recorded” adds a separate entry of the source.

Key:
[1] = system: FRβ expression on human AML cell lines; test: ATRA treatment of AML cell lines, FRβ surface expression by flow cytometry; format: cell-based; settings: 10 nM ATRA
Procedure: (§1) AML cell lines were plated on d0 at 2.5×10^5 per mL in complete media with final concentration 10 nM ATRA. On d3 fresh media with 10 nM ATRA was added to keep cells at 2.5×10^5 per mL. On d5 viable AML cells were washed and counted with trypan blue exclusion. Cells were then stained for FRβ surface expression and analyzed by flow cytometry, processed for RNA extraction, or used in co-cultures for functional assays.
Tumor cell surface expression of FRβ was detected by m909-IgG antibody (Dimiter Dimitrov) conjugated to biotin (EZ-Link Biotinylation Kit, Thermo). To block Fc receptor binding, tumor cells were incubated with 50 ug/mL unlabeled human IgG (Jackson ImmunoResearch) for 10 min. 3-5 ug/mL m909-biotin or human IgG-biotin isotype control was added, and cells were labeled for 30 min at 4 degrees, washed with FACS buffer, and labeled with Streptavidin-APC (BD) for 25 min at 4 degrees. Cells were washed, resuspended with 7AAD, and analyzed by flow cytometry.

ATRA-treated THP1 = test: CAR T cell recognition of ATRA-treated AML cell lines (cytokine release); format: cell-based, human; settings: 10 nM ATRA
Procedure: These assays were performed by co-culture of 10^5 CAR+ T cells with 10^5 target cells per well (or media alone) in triplicate in 96-well plates in a 200 μL volume of complete media. After ˜24 hours, plates were centrifuged at 1200 RPM to pellet the cells, and co-culture supernatants were removed and assayed for the presence of IFN-γ by ELISA (Biolegend). Values represent the mean of triplicate wells. IL-2, IL-4, IL-10, IFN-γ, and TNF-α cytokines were measured by flow cytometry with Cytometric Bead Array (BD Biosciences). The cell pellets were then labeled with antibodies for CD3 and CD69, and assessed by flow cytometry. Live, CD3+ gates were used for analysis of CD69 upregulation. For m909 CAR T cells, GFP was used as a marker for CAR+ cells. In some cases cell pellets were labeled for FRβ surface expression following co-cultures.
as §1, with “On d3 fresh media with 10 nM ATRA was added to keep cells at 2.5×10^5 per mL.” left out
Cell lines and CAR+ T cells were prepared as above (for cytokine release assays). […] Culture supernatants were then collected and analyzed for cytokines as described.

SMILES: CC1=C(/C=C/C(C)=C/C=C/C(C)=C/C(=O)O)C(C)(C)CCC1 [ATRA, all-trans retinoic acid]
- FRβ expression on AML cells [1]: enhanced the intensity of FRβ expression on the AMLs; also recorded: increases FRβ expression; also recorded: enhanced surface expression of FRβ; also recorded: induced FRβ upregulation
- IFNγ secretion by CAR T cells towards ATRA-treated AML cells (ATRA-treated THP1): enhances; also recorded: IFNγ production
- immune recognition of ATRA-treated AML cells by FRβ CAR T cells (ATRA-treated THP1): increased immune recognition by FRβ CAR T cells; also recorded: increased immune recognition by m909 CAR T cells; also recorded: enhances FRβ-mediated m909 CAR T cell recognition; also recorded: increases immune recognition
